Data as given in patent US20130005759A1, “SMALL MOLECULE MODIFIERS OF MICRORNA MIR-122” (North Carolina State University, priority 2010, published 2013).

Key:
HepG2 cells = experiment: CellTiter-Glo cell viability in HepG2 cells; format: cell-based; details: HepG2, 10 μM, 48 hours
miR-122 [1] = experiment: quantitative RT PCR of mature miR-122 in Huh7 cells; format: cell-based, human; details: Huh7, 10 μM, 48 hours
Description: The activity of the small molecule modifiers was analyzed by quantitative RT PCR in order to measure their direct effects on miR-122 expression levels in Huh7 cells. […] All experiments were conducted in triplicate, and the data was normalized to a DMSO control.
Each treatment was conducted in triplicate to ensure statistical validity. Cells were then incubated at 37° C. for 48 hours (DMEM, 5% CO2). The media was removed, and cells were washed with PBS buffer (2×2 mL, pH 7.4) followed by RNA isolation with the mirPremier™ microRNA Isolation Kit (Aldrich). The RNA was quantified using a Nanodrop ND-1000 spectrophotometer and 10 ng of each RNA sample was reverse transcribed using the TaqMan™ microRNA Reverse Transcription Kit (Applied Biosystems) in conjunction with either the miR-122 or miR-21 TaqMan™ RT primer (16° C., 30 min; 42° C., 30 min; 85° C., 5 min). Quantitative Real Time PCR was conducted with a TaqMan™ 2× Universal PCR Master Mix and the appropriate TaqMan™ miRNA assay (Applied Biosystems) on a BioRad MyiQ RT-PCR thermocycler (1.3 μL RT PCR product; 95° C., 10 min; followed by 40 cycles of 95° C., 15 s; 60° C. 60 s). Threshold cycles were used to determine miRNA copy numbers, and the levels of miR-122 and miR-21 were compared via determination of threshold cycle (Ct) and conversion to copy number (copy number=10[(Ct−37.4)/−3.3]).^17 The data was then normalized to the DMSO control. The samples were also analyzed by real time PCR for the presence of pri-miR-122 transcript using the previously described primers (5′ […] 3′ (SEQ ID NO:5) and 5′ […] 3′ (SEQ ID NO:6); IDT DNA) and iQ SYBR Green Supermix for the real time PCR (95° C., 3 min; followed by 40 cycles of 95° C., 15 s; 60° C. 60 s).^14

miR-122 [2] = experiment: psiCHECK-miR122 dual luciferase reporter assay in Huh7 cells; format: cell-based, human
Text: A miRNA small molecule modifier screen for miR-122 was developed based on the psiCHECK-2 (Promega) reporter plasmid (FIG. 9). This construct expresses both Renilla luciferase as well as firefly luciferase, allowing for the normalization of the signal to account for differential cellular viability and variability in transfection efficiency. The miR-122 target sequence was inserted downstream of the Renilla luciferase gene, between the PmeI and SgfI restriction sites. In another aspect of the invention, plasmids expressing luciferase or another reporter gene such as for example, fluorescent reporters (GFP and variants thereof, DsRed, etc.) or beta-galactosidase can be used to screen for small molecule modifiers of miR-122. The mi-122 target sequence may be upstream or downstream of the reporter gene. Multiple miR-122 target sites can also be inserted into or be present in the plasmid.
The presence of mature miR-122 will lead to a decrease in the Renilla luciferase signal (FIG. 1a). The ability to detect endogenous miR-122 was validated by transfecting the generated psiCHECK-miR122 construct into Huh7 and HeLa cells. After 48 hour incubation, the cells were assayed using a Dual Luciferase Assay Kit (Promega). In another embodiment, the cells can be incubated for about 24-96 hours. The Dual Luciferase Assay Kit provides a means to measure the amount of the luciferases by generating a luminescent signal. Using this assay the luminescence from the firefly luciferase reaction may be quenched while the luminescent reaction of Renilla luciferase can be activated. Other assays and procedures that can determine the amount of the one or more reporter genes or miR-122 expression, activity or function can be used. An example of another assay is Dual-Glo Assay (Promega).
The psiCHECK-miR122 vector was then employed in a small molecule screen in Huh7 cells to discover modifiers of miR-122 function. Other cells that express miR-122 such as HepG2 and Hep3B can be used in addition to or instead of Huh7 cells. An increase in the relative Renilla luciferase signal indicates a miR-122 inhibitor, while a reduction in the luciferase signal indicates a miR-122 activator. A genus of compounds that may have activity as modifiers of miR122 function are the Diversity Set II (1364 compounds) from the NCI Developmental Therapeutics Program was screened using Huh7 cells containing the psiCHECK-miR122 reporter. Cells were exposed to the small molecules and the relative luciferase signal was measured after 48 hours using a Dual Luciferase Assay Kit (Promega). In another embodiment the cells can be exposed to the small molecules for about 24-96 hours. As explained above, other assays and procedures that can determine the amount of the one or more reporter genes or miR-122 expression, activity or function can be used.
The analogs were screened for activity using the previously described miR-122 assay. All cells were treated with 10 μM of a compound and experiments were performed in triplicate to ensure statistical validity. The data was normalized to a 1% DMSO control and is reported in relative luciferase units (RLU). The standard deviation was calculated from three independent assays. Some analogs of miR-122 inhibitor compound 1 are:
Huh7 and HeLa cells were transfected at approximately 60% confluency with either the psiCHECK-Control plasmid (the original psiCHECK-2 plasmid containing no known miRNA binding site) or the psiCHECK-miR122 plasmid (0.5 μg) using X-tremGENE transfection reagent (3:2 reagent/DNA ratio; Roche) in Opti-Mem media (Invitrogen). All transfections were performed in triplicate for statistical analysis. The cells were incubated at 37° C. for 4 hours followed by the replacement of transfection media with standard DMEM growth media. After 48 hours of incubation the media was removed, cells were lysed and assayed with a Dual Luciferase Assay Kit (Promega) using a Wallac VICTOR^3V luminometer with a measurement time of 1 s and a delay time of 2 s. […]

caspase-3 and -7 = experiment: Caspase-Glo 3/7 assay in HepG2 cells; format: cell-based; details: HepG2, 10 μM, 48 hours
Text: (§1) This enhanced caspase activity led to a reduced cell viability of ˜20% (CellTiter-Glo, Promega) (FIGS. 8A and B), exceeding previously reported reductions in cell viability due to lentiviral over-expression of miR-122 in HepG2 cells.^13 An increased caspase 3/7 level is observed in HepG2 cells due to activation of the pro-apoptic miR-122 (FIG. 8A). This increase is more pronounced in HepG2 than Huh7 cells, due to the different basal miR-122 levels in both cell lines. […] Thus, a small molecule activator of miR-122, like compound 3, has therapeutic relevance towards the selective treatment of HCC.
Both HepG2 and Huh7 cells were passaged into a 96-well plate and grown to 70% confluency. The media was then removed and replaced with standard growth media supplemented with 3 (10 μM) or a DMSO control (1% final DMSO concentration in all wells) and incubated for 48 hours at 37° C. All incubations were conducted in triplicate to ensure statistical validity. The media was removed and cells were assayed with the Caspase-Glo 3/7 (Promega) kit according to the manufacturers directions and luminescence was measured using a Wallac VICTOR^3V luminometer with a measurement time of 1 s and a delay time of 2 s.

miR-21 = miR-21 luciferase reporter assay in HeLa-miR-21-Luc cells; format: cell-based; details: 10 μM, 48 hours
Description: Using the previously described HeLa-miR-21-Luc cell line (a stably transfected line harboring a miR-21 binding sequence in the 3′ UTR of a firefly luciferase gene),(9) cells were grown to 80% confluency (DMEM) and treated with either DMSO, the previously reported miR-21 inhibitor, or compounds 1 and 2 at 10 μM (1% DMSO final concentration). The cells were incubated for 48 hours at 37° C. (5% CO2) and then assayed with a Bright-Glo Luciferase Kit (Promega) and analyzed using a Wallac VICTOR^3V luminometer with a measurement time of 1 s and a delay time of 2 s (FIG. 4).

Huh7 cells = experiment: CellTiter-Glo cell viability in Huh7 cells; format: cell-based, human; details: Huh7, exposure to compound
Text: as §1
HepG2 and Huh7 cells were passaged into a 96-well plate and grown to 60% confluency. The media was then removed and replaced with standard growth media supplemented with increasing concentrations of the miR-122 small molecule modifiers (0-20 μM; 1% final DMSO concentration) and incubated for 48 hours at 37° C. Cellular viability was then assessed using a Cell-Titer Glo Assay (Promega) according to the manufacturers directions and luminescence was measured using a Wallac VICTOR^3V luminometer with a measurement time of 1 s and a delay time of 2 s.

CN(C)CCN1C(=O)c2cccc3cc(N)cc(c23)C1=O [Compound 3]
reduced cell viability (HepG2 cells): ~20% | increase in miR-122 expression levels (miR-122 [1]): 438% | IC50 (miR-122 [2]; Homo sapiens, Huh-7, Huh7, calculated from FIG. 5, read-out: IC50 (miR-122 activator, luciferase dose response)): 370 ± 20 nM | reduction of the Renilla luciferase signal (miR-122 [2]; Huh7, psiCHECK-miR122, 10 μM): 7 fold | relative luciferase units (RLU) normalized to a DMSO control (miR-122 [2]; Huh7, psiCHECK-miR122, 10 μM, mean ± SD of three independent assays): 0.11±0.02 RLU | increase in the activity of caspase-3 and -7 (caspase-3 and -7): ~20 fold | activity in miRNA-21 reporter (luciferase signal) (miR-21): No effect | cell viability (in words) (Huh7 cells): only slightly affected
